From ChEMBL document CHEMBL4808223, “Design, synthesis and biological activity of bis-sulfonyl-BODIPY probes for tumor cell imaging” (Bioorg Med Chem Lett, 2021)

Tests used:
HCT-116 = assay: Cytotoxicity against human HCT-116 cells by MTT assay; assay type: functional, cell-based
HeLa [1] = assay: Cytotoxicity against human HeLa cells by MTT assay; assay type: functional, cell-based
L02 = assay: Cytotoxicity against human L02 cells by MTT assay; assay type: cell-based
[2] = Drug uptake in human HeLa cells assessed as increase in fluorescence intensity at 10 uM incubated for 24 hrs by DAPI staining based confocal microscopic analysis; assay type: ADME, cell-based
[3] = Drug uptake in tumor of mouse xenografted with human HeLa cells administered intraperitoneally and measured after 30 mins by fluorescence imaging analysis; assay type: ADME, tissue-based, Neoplasm; details: in vivo, ip, 0.5 h
HeLa [4] = assay: Induction of apoptosis in human HeLa cells assessed as early apoptotic cells measured after 12 hrs by Annexin-V-FITC/propidium iodide staining based flow cytometry; assay type: functional
HeLa [5] = assay: Induction of apoptosis in human HeLa cells assessed as late apoptotic cells measured after 12 hrs by Annexin-V-FITC/propidium iodide staining based flow cytometry; assay type: functional
HeLa [6] = assay: Induction of apoptosis in human HeLa cells assessed as necrotic cells measured after 12 hrs by Annexin-V-FITC/propidium iodide staining based flow cytometry; assay type: functional
HeLa [7] = assay: Induction of apoptosis in human HeLa cells assessed as viable cells measured after 12 hrs by Annexin-V-FITC/propidium iodide staining based flow cytometry; assay type: functional

| Compound | IC50 (HCT-116) [µM] | IC50 (HeLa [1]) [µM] | IC50 (L02) [µM] | Drug uptake [2] | Drug uptake [3] | Activity (HeLa [4]) [%] | Activity (HeLa [5]) [%] | Activity (HeLa [6]) [%] | Activity (HeLa [7]) [%] |
| --- | --- | --- | --- | --- | --- | --- | --- | --- | --- |
| CCC1=C(C)C2=C(c3ccccc3)c3ccc(NCCNCC(=O)c4ccc(OS(C)(=O)=O)cc4OS(C)(=O)=O)n3[B-](F)(F)[N+]2=C1C | 101 | 95.5 | 41.7 | Active |  |  |  |  |  |
| CCC1=C(C)C2=C(c3ccccc3)c3ccc(NCCN)n3[B-](F)(F)[N+]2=C1C |  |  |  | Active |  |  |  |  |  |
| CCC1=C(C)C2=C(c3ccccc3)c3ccc(NCCNCC(=O)c4ccc(OS(=O)(=O)c5ccccc5)cc4OS(=O)(=O)c4ccccc4)n3[B-](F)(F)[N+]2=C1C | 93.1 | 89.1 | 53.3 | Active | Active | 0.24 | 2.46 | 0.91 | 96.38 |
